Measurements: ChEMBL document CHEMBL1139736, “Microwave expedited synthesis of 5-aminocamptothecin analogs: Inhibitors of hypoxia inducible factor HIF-1alpha” (2006)

System: LNCaP C4-2
Test: Inhibition of HIF1-alpha production in c4-2 cells at 20 nM after 24 hrs relative to control
Format: functional
Conditions: Homo sapiens, LNCaP C4-2, 24 h

`CO[C@H]1C[C@@H]2CC[C@@H](C)[C@@](O)(O2)C(=O)C(=O)N2CCCC[C@H]2C(=O)O[C@H]([C@H](C)C[C@@H]2CC[C@@H](O)[C@H](OC)C2)CC(=O)[C@H](C)/C=C(\C)[C@@H](O)[C@@H](OC)C(=O)[C@H](C)C[C@H](C)/C=C/C=C/C=C/1C` [SIROLIMUS] was tested. Which inhibition at 0.02 µM did it give?
The inhibition at 0.02 µM was 35%.

System: LNCaP C4-2
Test: Inhibition of HIF1alpha production in c4-2 cells at 10 uM after 24 hrs relative to control
Format: functional
Conditions: Homo sapiens, LNCaP C4-2, 24 h

With `CC[C@@]1(O)C(=O)OCc2c1c(NCc1ccc(F)cc1)c1n(c2=O)Cc2cc3ccccc3nc2-1` as the molecule, how does the inhibition at 10 µM read?
The inhibition at 10 µM was 40%.

With `CC[C@@]1(O)C(=O)OCc2c1cc1n(c2=O)Cc2cc3ccccc3nc2-1` [CAMPTOTHECIN] as the molecule, how does the inhibition at 10 µM read?
Its inhibition at 10 µM is 69%.

With `CCCNc1c2c(c(=O)n3c1-c1nc4ccccc4cc1C3)COC(=O)[C@]2(O)CC` as the molecule, how does the inhibition at 10 µM read?
Its inhibition at 10 µM is 76%.

Which inhibition at 10 µM does the source give for `CC[C@@]1(O)C(=O)OCc2c1c(NCc1ccc(OC)cc1)c1n(c2=O)Cc2cc3ccccc3nc2-1` here?
Its inhibition at 10 µM is 9%.

`CC[C@@]1(O)C(=O)OCc2c1c(NCCF)c1n(c2=O)Cc2cc3ccccc3nc2-1` was tested. Which inhibition at 10 µM did it give?
The inhibition at 10 µM was 88%.

Which inhibition at 10 µM does the source give for `CC[C@@]1(O)C(=O)OCc2c1c(NCc1cccc(F)c1)c1n(c2=O)Cc2cc3ccccc3nc2-1` here?
The inhibition at 10 µM was 0%.

`CC[C@@]1(O)C(=O)OCc2c1cc1n(c2=O)Cc2cc3c(CN(C)C)c(O)ccc3nc2-1` [TOPOTECAN] was tested. Which inhibition at 10 µM did it give?
Its inhibition at 10 µM is 69%.
